Experimental data published in PubChem BioAssay (NCI).
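Each compound was tested at five concentrations against cells in 96-well plates for 48 hours. GI50: concentration for 50% inhibition of growth. At the TGI there is no net growth.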

Legend:
Test in all cases: inhibition of tumour cell growth, NCI panel, 48 h
[1] = test system: HCT-15 colon
[2] = test system: SR leukemia
[3] = test system: OVCAR-8 ovarian
[4] = test system: RXF 393 renal
[5] = test system: K-562 leukemia
[6] = test system: SF-295 CNS
[7] = test system: CCRF-CEM leukemia
[8] = test system: 786-0 renal
[9] = test system: RPMI-8226 leukemia
[10] = test system: BT-549 breast
[11] = test system: SNB-19 CNS
[12] = test system: SF-268 CNS
[13] = test system: HCT-116 colon
[14] = test system: T-47D breast
[15] = test system: DU-145 prostate
[16] = test system: NCI-H460 lung
[17] = test system: MDA-MB-435
[18] = test system: MDA-MB-231 breast
[19] = test system: A549 NSCLC
[20] = test system: IGROV1 ovarian
[21] = test system: NCI-H522 lung
[22] = test system: LOX IMVI melanoma
[23] = test system: NCI-H23 lung
[24] = test system: HCC-2998 colon
[25] = test system: NCI/ADR-RES ovarian
[26] = test system: HS 578T breast
[27] = test system: OVCAR-4 ovarian
[28] = test system: UO-31 renal
[29] = test system: HL-60(TB) leukemia
[30] = test system: SW-620 colon
[31] = test system: TK-10 renal
[32] = test system: ACHN renal
[33] = test system: OVCAR-3 ovarian
[34] = test system: SK-MEL-28 melanoma
[35] = test system: MCF7 breast
[36] = test system: MALME-3M melanoma
[37] = test system: SN12C renal
[38] = test system: COLO 205 colon
[39] = test system: U251 CNS
[40] = test system: SF-539 CNS
[41] = test system: M14 melanoma
[42] = test system: NCI-H226 lung
[43] = test system: UACC-62 melanoma
[44] = test system: SNB-75 CNS
[45] = test system: EKVX NSCLC
[46] = test system: SK-OV-3 ovarian
[47] = test system: MOLT-4 leukemia
[48] = test system: SK-MEL-2 melanoma
[49] = test system: PC-3 prostate
[50] = test system: HOP-62 NSCLC
[51] = test system: KM12 colon
[52] = test system: SK-MEL-5 melanoma
[53] = test system: CAKI-1 renal
[54] = test system: A498 renal
[55] = test system: OVCAR-5 ovarian
[56] = test system: HT29 colon
[57] = test system: UACC-257 melanoma

Which GI50 [1] does the source give for Nc1nc(N)c2cc(CNc3ccc(Cl)c(Cl)c3)ccc2n1 here?
The GI50 was 365 nM.

What about the TGI [1] of the same compound?
The TGI was 1720 nM.

And the GI50 [2]?
Its GI50 is 445 nM.

And the TGI [2]?
Its TGI is 1930 nM.

What about the GI50 [3] of the same compound?
Its GI50 is 513 nM.

What about the TGI [3] of the same compound?
Its TGI is 1750 nM.

What about the GI50 [4] of the same compound?
Its GI50 is 748 nM.

And the TGI [4]?
The TGI was 2180 nM.

And the GI50 [5]?
The GI50 was 58.8 nM.

What about the TGI [5] of the same compound?
Its TGI is 1450 nM.

What about the GI50 [6] of the same compound?
Its GI50 is 419 nM.

And the TGI [6]?
The TGI was 1690 nM.

What about the GI50 [7] of the same compound?
Its GI50 is 395 nM.

What about the TGI [7] of the same compound?
The TGI was 1880 nM.

And the GI50 [8]?
The GI50 was 391 nM.

And the TGI [8]?
The TGI was 1730 nM.

What about the GI50 [9] of the same compound?
Its GI50 is 1610 nM.

And the TGI [9]?
The TGI was 3620 nM.

What about the GI50 [10] of the same compound?
The GI50 was 1400 nM.

What about the TGI [10] of the same compound?
Its TGI is 2780 nM.

And the GI50 [11]?
The GI50 was 822 nM.

And the TGI [11]?
The TGI was 2090 nM.

What about the GI50 [12] of the same compound?
The GI50 was 544 nM.

What about the TGI [12] of the same compound?
Its TGI is 1850 nM.

And the GI50 [13]?
Its GI50 is 83.9 nM.

And the TGI [13]?
Its TGI is 1310 nM.

And the GI50 [14]?
Its GI50 is 1540 nM.

And the TGI [14]?
The TGI was 2900 nM.

What about the GI50 [15] of the same compound?
Its GI50 is 680 nM.

What about the TGI [15] of the same compound?
The TGI was 1930 nM.

And the GI50 [16]?
The GI50 was 60.9 nM.

And the TGI [16]?
The TGI was 1320 nM.

What about the GI50 [17] of the same compound?
Its GI50 is 380 nM.

And the TGI [17]?
The TGI was 1780 nM.

What about the GI50 [18] of the same compound?
Its GI50 is 803 nM.

What about the TGI [18] of the same compound?
The TGI was 2160 nM.

And the GI50 [19]?
Its GI50 is 63.1 nM.

And the TGI [19]?
Its TGI is 1340 nM.

What about the GI50 [20] of the same compound?
Its GI50 is 579 nM.

And the TGI [20]?
The TGI was 1920 nM.

What about the GI50 [21] of the same compound?
The GI50 was 567 nM.

What about the TGI [21] of the same compound?
The TGI was 2010 nM.

And the GI50 [22]?
The GI50 was 146 nM.

And the TGI [22]?
The TGI was 1550 nM.

And the GI50 [23]?
The GI50 was 710 nM.

What about the TGI [23] of the same compound?
Its TGI is 2110 nM.

What about the GI50 [24] of the same compound?
Its GI50 is 640 nM.

And the TGI [24]?
The TGI was 2000 nM.

What about the GI50 [25] of the same compound?
Its GI50 is 802 nM.

What about the TGI [25] of the same compound?
The TGI was 3250 nM.

What about the GI50 [26] of the same compound?
Its GI50 is 1340 nM.

And the TGI [26]?
The TGI was 3020 nM.

What about the GI50 [27] of the same compound?
Its GI50 is 1160 nM.

And the TGI [27]?
The TGI was 2370 nM.

And the GI50 [28]?
Its GI50 is 865 nM.

And the TGI [28]?
The TGI was 2170 nM.

What about the GI50 [29] of the same compound?
The GI50 was 357 nM.

And the TGI [29]?
Its TGI is 2000 nM.

What about the GI50 [30] of the same compound?
Its GI50 is 133 nM.

And the TGI [30]?
The TGI was 1500 nM.

What about the GI50 [31] of the same compound?
The GI50 was 1420 nM.

What about the TGI [31] of the same compound?
The TGI was 2730 nM.

And the GI50 [32]?
Its GI50 is 495 nM.

And the TGI [32]?
The TGI was 1710 nM.

And the GI50 [33]?
The GI50 was 1100 nM.

What about the TGI [33] of the same compound?
Its TGI is 2290 nM.

What about the GI50 [34] of the same compound?
The GI50 was 1510 nM.

And the TGI [34]?
Its TGI is 2840 nM.

What about the GI50 [35] of the same compound?
Its GI50 is 775 nM.

What about the TGI [35] of the same compound?
The TGI was 2050 nM.

What about the GI50 [36] of the same compound?
The GI50 was 1210 nM.

What about the TGI [36] of the same compound?
The TGI was 2770 nM.

What about the GI50 [37] of the same compound?
The GI50 was 732 nM.

What about the TGI [37] of the same compound?
The TGI was 2120 nM.

What about the GI50 [38] of the same compound?
Its GI50 is 1110 nM.

And the TGI [38]?
The TGI was 2330 nM.

And the GI50 [39]?
Its GI50 is 433 nM.

And the TGI [39]?
The TGI was 1660 nM.

What about the GI50 [40] of the same compound?
The GI50 was 825 nM.

And the TGI [40]?
Its TGI is 2130 nM.

What about the GI50 [41] of the same compound?
Its GI50 is 130 nM.

What about the TGI [41] of the same compound?
Its TGI is 1700 nM.

And the GI50 [42]?
Its GI50 is 1580 nM.

And the TGI [42]?
Its TGI is 3210 nM.

And the GI50 [43]?
Its GI50 is 468 nM.

What about the TGI [43] of the same compound?
Its TGI is 1860 nM.

What about the GI50 [44] of the same compound?
Its GI50 is 1140 nM.

What about the TGI [44] of the same compound?
The TGI was 2360 nM.

What about the GI50 [45] of the same compound?
The GI50 was 742 nM.

What about the TGI [45] of the same compound?
Its TGI is 2180 nM.

What about the GI50 [46] of the same compound?
The GI50 was 1280 nM.

What about the TGI [46] of the same compound?
The TGI was 2530 nM.

And the GI50 [47]?
The GI50 was 485 nM.

And the TGI [47]?
The TGI was 2020 nM.

What about the GI50 [48] of the same compound?
The GI50 was 1520 nM.

What about the TGI [48] of the same compound?
The TGI was 3010 nM.

And the GI50 [49]?
The GI50 was 412 nM.

And the TGI [49]?
The TGI was 1890 nM.

What about the GI50 [50] of the same compound?
The GI50 was 810 nM.

And the TGI [50]?
Its TGI is 2050 nM.

What about the GI50 [51] of the same compound?
Its GI50 is 866 nM.

And the TGI [51]?
Its TGI is 2130 nM.

And the GI50 [52]?
Its GI50 is 519 nM.

What about the TGI [52] of the same compound?
Its TGI is 1820 nM.

What about the GI50 [53] of the same compound?
The GI50 was 1220 nM.

What about the TGI [53] of the same compound?
The TGI was 2540 nM.

What about the GI50 [54] of the same compound?
Its GI50 is 1760 nM.

And the TGI [54]?
The TGI was 8540 nM.

What about the GI50 [55] of the same compound?
Its GI50 is 756 nM.

And the TGI [55]?
Its TGI is 2050 nM.

And the GI50 [56]?
The GI50 was 287 nM.

What about the TGI [56] of the same compound?
Its TGI is 1650 nM.

And the GI50 [57]?
Its GI50 is 891 nM.

And the TGI [57]?
Its TGI is 2240 nM.
